Source: publication PMC11009625, “Antibiotic class with potent in vivo activity targeting lipopolysaccharide synthesis in Gram-negative bacteria” (Proceedings of the National Academy of Sciences of the …, 2024)
≈ marks a conversion by molar mass, not a printed value. Read-outs that look alike come from different tables or passages of the source.

Columns and labels:
Assay type in all cases: cell-based
[1] = tested on: clinical MDR K. pneumoniae isolates; experiment: MIC, clinical multi-drug resistant K. pneumoniae isolates; conditions: for MIC: Klebsiella pneumoniae
Method: (§1) Minimum inhibitory concentration (MIC) values were determined according to the Clinical Laboratory Standards Institute guidelines. Frequency of resistance was determined by plating ~5 × 10^8 bacterial cells on agar-solidified media plates containing test compound at concentrations corresponding to four times the measured solid-media MIC of the strains. Colonies were counted after 24 h, restreaked onto media containing the same concentration of compound, and the MIC remeasured against the assayed compound. Genomic DNA from isolated clones was sequenced by paired-end sequencing on an Illumina MiSeq device. Complete experimental details available in SI Appendix. […]
(§2) Minimum inhibitory concentration (MIC) determination. Broth microdilution and agar dilution MIC assays were conducted according to CLSI guidelines (M07-2012). Appropriate inoculation suspension density was assessed using a Sensititre Nephelometer with a Sensititre 0.5 […]
(§3) McFarland Standard. […]
To determine the […]
genotype of MDR strains from the ENABLE strain collection, de novo assembled contigs were […]

E. coli ATCC 25922 = experiment: MIC (CLSI broth microdilution), wild-type E. coli; conditions: ATCC 25922 (Table S4); for MIC: Escherichia coli, ATCC25922, read-out: MIC E. coli EN0001
Method: as §1
Minimum inhibitory concentration (MIC) determination. Broth microdilution and agar dilution
MIC assays were conducted according to CLSI guidelines (M07-2012). Appropriate inoculation
suspension density was assessed using a Sensititre Nephelometer with a Sensititre 0.5
as §3

[2] = tested on: clinical MDR E. coli isolates; experiment: MIC, clinical multi-drug resistant E. coli isolates; conditions: for MIC: Escherichia coli
Method: as §1, §2, §3
Whole-genome sequencing and data analysis. Genomic DNA of selected clones was prepared using an Epicentre MasterPure Complete DNA Purification Kit. Whole-genome sequencing libraries were prepared using an Illumina Nextera XT Library Preparation Kit. The libraries were sequenced using an Illumina MiSeq device with a V3 600-cycle reagent kit. Whole-genome sequencing data was analyzed using CLC Genomics Workbench Version 11. To determine the genotype of MDR strains from the ENABLE strain collection, de novo assembled contigs were […]

[3] = read-out: MIC K. pneumoniae EN0140
[4] = read-out: MIC K. pneumoniae EN0142
[5] = read-out: MIC K. pneumoniae EN0143
[6] = read-out: MIC K. pneumoniae EN0144
[7] = read-out: MIC K. pneumoniae EN0145
[8] = read-out: MIC K. pneumoniae EN0233
[9] = read-out: MIC K. pneumoniae EN0245
[10] = read-out: MIC K. pneumoniae EN0504

With Colistin the “MIC K. pneumoniae EN0144” value ([1]; MBL (blaVIM-26), MDR) was 2 µg/mL, the “MIC K. pneumoniae EN0145” value ([1]; MDR (blaCTX-M-15 ...)) was 2 µg/mL and the “MIC K. pneumoniae EN0140” value ([1]; MDR (blaDHA-1 ...), OmpK36 loss) was 2 µg/mL. For the same compound, the “MIC K. pneumoniae EN0143” value ([1]; MDR (blaOXA-2, blaSHV-12 ...)) was 2 µg/mL, the “MIC K. pneumoniae EN0142” value ([1]; carbapenemR (blaKPC-2), MDR) was 2 µg/mL and the “MIC K. pneumoniae EN0233” value ([1]; carbapenemR (blaOXA-48), MDR, OmpK36 loss) was 32 µg/mL. The “MIC K. pneumoniae EN0245” value ([1]; colistinR (mgrB::IS10), MDR) was 64 µg/mL, the “MIC K. pneumoniae EN0504” value ([1]; colistinR, MDR) was 64 µg/mL and the “MIC E. coli EN0001” value (E. coli ATCC 25922) was 2 µg/mL. The “MIC E. coli EN0135” value ([2]; MDR (aac(3)-IIa, blaTEM-1B, blaSHV-12 ...)) was 2 µg/mL, the “MIC E. coli EN0134” value ([2]; MDR (blaCMY-4, blaTEM-1B ...)) was 2 µg/mL and the “MIC E. coli EN0138” value ([2]; MDR (blaCTX-M-14b, blaTEM-1C ...)) was 2 µg/mL. For the same compound, the “MIC E. coli EN0139” value ([2]; MDR (blaOXA-1, blaCTX-M-15 ...)) was 2 µg/mL, the “MIC E. coli EN0137” value ([2]; MDR (blaOXA-1, blaTEM-1B, blaCTX-M-15 ...)) was 2 µg/mL and the “MIC E. coli EN0136” value ([2]; MDR (blaOXA-2, blaTEM-1B, blaCTX-M-2 ...)) was 1 µg/mL. The “MIC E. coli EN0481” value ([2]; colistinR (mcr-1), MDR (rmtB ...)) was 8 µg/mL and the “MIC E. coli EN0303” value ([2]; colistinR (pmrB T156M), MDR) was 8 µg/mL.

In the case of `CO/N=C(\C(=O)N[C@@H]1C(=O)N2C(C(=O)O)=C(COC(C)=O)CS[C@H]12)c1csc(N)n1` [Cefotaxime], the MIC [1, 3] is reported as over 64 µg/mL, the MIC [1, 4] is reported as over 64 µg/mL and the MIC [1, 5] is reported as 16 µg/mL (≈ 35.1 µM). The MIC [1, 6] was over 64 µg/mL, the MIC [1, 7] was over 64 µg/mL and the MIC [1, 8] was over 64 µg/mL. It also gave an MIC [1, 9] of 64 µg/mL (≈ 141 µM), an MIC [1, 10] of over 64 µg/mL and an MIC (E. coli ATCC 25922) of 0.5 µg/mL (≈ 1.1 µM). It also gave an MIC ([2]; read-out: MIC E. coli EN0134) of 8 µg/mL (≈ 17.6 µM), an MIC ([2]; read-out: MIC E. coli EN0135) of 2 µg/mL (≈ 4.39 µM) and an MIC ([2]; read-out: MIC E. coli EN0136) of 4 µg/mL (≈ 8.78 µM). For the same compound, the MIC ([2]; read-out: MIC E. coli EN0137) was over 64 µg/mL, the MIC ([2]; read-out: MIC E. coli EN0138) was over 64 µg/mL and the MIC ([2]; read-out: MIC E. coli EN0139) was over 64 µg/mL. The MIC ([2]; read-out: MIC E. coli EN0303) was over 64 µg/mL and the MIC ([2]; read-out: MIC E. coli EN0481) was over 64 µg/mL.

`C[C@@H](O)[C@H]1C(=O)N2C(C(=O)O)=C(S[C@@H]3CN[C@H](C(=O)N(C)C)C3)[C@H](C)[C@H]12` [Meropenem] gave an MIC [1, 3] of 2 µg/mL (≈ 5.22 µM), an MIC [1, 4] of 0.5 µg/mL (≈ 1.3 µM) and an MIC [1, 5] of at most 0.125 µg/mL. The MIC [1, 6] was 64 µg/mL (≈ 167 µM), the MIC [1, 7] was 8 µg/mL (≈ 20.9 µM) and the MIC [1, 8] was 2 µg/mL (≈ 5.22 µM). It also gave an MIC [1, 9] of 2 µg/mL (≈ 5.22 µM), an MIC [1, 10] of 4 µg/mL (≈ 10.4 µM) and an MIC (E. coli ATCC 25922) of at most 0.125 µg/mL. For the same compound, the MIC ([2]; read-out: MIC E. coli EN0134) was at most 0.125 µg/mL, the MIC ([2]; read-out: MIC E. coli EN0135) was at most 0.125 µg/mL and the MIC ([2]; read-out: MIC E. coli EN0136) was at most 0.125 µg/mL. It also gave an MIC ([2]; read-out: MIC E. coli EN0137) of at most 0.125 µg/mL, an MIC ([2]; read-out: MIC E. coli EN0138) of at most 0.125 µg/mL and an MIC ([2]; read-out: MIC E. coli EN0139) of at most 0.125 µg/mL. It also gave an MIC ([2]; read-out: MIC E. coli EN0303) of at most 0.125 µg/mL and an MIC ([2]; read-out: MIC E. coli EN0481) of at most 0.125 µg/mL.

`CNC(C)C1CCC(N)C(OC2C(N)CC(N)C(OC3OCC(C)(O)C(NC)C3O)C2O)O1` (centres unmarked) [Gentamicin] gave an MIC [1, 3] of over 64 µg/mL, an MIC [1, 4] of 64 µg/mL (≈ 134 µM) and an MIC [1, 5] of 0.5 µg/mL (≈ 1.05 µM). It also gave an MIC [1, 6] of over 64 µg/mL, an MIC [1, 7] of 2 µg/mL (≈ 4.19 µM) and an MIC [1, 8] of over 64 µg/mL. The MIC [1, 9] was 2 µg/mL (≈ 4.19 µM), the MIC [1, 10] was 0.5 µg/mL (≈ 1.05 µM) and the MIC (E. coli ATCC 25922) was 1 µg/mL (≈ 2.09 µM). The MIC ([2]; read-out: MIC E. coli EN0134) was 2 µg/mL (≈ 4.19 µM), the MIC ([2]; read-out: MIC E. coli EN0135) was over 64 µg/mL and the MIC ([2]; read-out: MIC E. coli EN0136) was over 64 µg/mL. For the same compound, the MIC ([2]; read-out: MIC E. coli EN0137) was over 64 µg/mL, the MIC ([2]; read-out: MIC E. coli EN0138) was 8 µg/mL (≈ 16.8 µM) and the MIC ([2]; read-out: MIC E. coli EN0139) was 2 µg/mL (≈ 4.19 µM). It also gave an MIC ([2]; read-out: MIC E. coli EN0303) of 2 µg/mL (≈ 4.19 µM) and an MIC ([2]; read-out: MIC E. coli EN0481) of over 64 µg/mL.
